Measurements as given in patent publication US8313920B2, “High-throughput assay for evaluating dipeptidyl peptidase I activity” (Janssen Research & Development, LLC, priority 2008, dated 2012).
pIC50: −log10 of the molar value. Residues, ends and D or L forms follow the SMILES beside them. No end group written: not given here. *: point of attachment. AMC = Cc1cc(=O)oc2cc(N*)ccc12

What was measured:
Format in all cases: biochemical
[1] = target: T1, dipeptidyl peptidase I (DPPI) (Homo sapiens, UniProt P53634); assay: Rate-based DPPI assay with dipeptide substrate GR-alpha-methylcoumarin, fluorescence, test compounds; settings: dipeptide substrate GR-α-methylcoumarin about 10 μM, about 0.4 nM DPPI, compound up to 10 mM
T1 construct: made in house; host or cells: Hi5 insect cells (baculovirus)
Protocol: (§1) FIG. 2. Evaluating the DPPI-modulating activity with two test compounds using a dipeptide substrate (A) and using a 20-mer peptide substrate (B). (A) About 0.4 nM of DPP1 and about 10 μM of dipeptide substrate GR-α-methylcoumarin were used in a rate-based format and monitored with fluorescence at EM=460 nm and EX=380 nm. (B) About 2 nM of DPPI and 20 μM of the 20-mer peptide substrate […] (SEQ ID NO:1) were used in a reaction and monitored with a mass spectrometry system. 2-(piperidin-1-ylcarbonyl)phenol is represented by solid squares and 2-(piperidin-1-ylcarbonyl)aniline is represented by solid circles. R^2-values is >0.95.
The DPPI activity was analyzed with either the dipeptide substrate, Gly-Arg, labeled with alpha-methylcoumarin (AMC), or the 20-mer peptide substrate of SEQ ID NO: 1. […] The fluorescence (Ex=380 nm, EM=460 nm) was monitored continuously from about 0 to 10 mins, using a Safire II (Tecan, Switzerland) to determine the DPPI activity. […]
Two fragment compounds, 2-(piperidin-1-ylcarbonyl)phenol and 2-(piperidin-1-ylcarbonyl)aniline were evaluated for their activity to modulate DPPI. […] An aliquot of about 10 μl of the quenched reaction was analyzed by RapidFire™ as described in Examples 3 and 4.

[2] = target: T1, dipeptidyl peptidase I (DPPI); assay: DPPI assay with label-free 20-mer peptide substrate, mass spectrometry (RapidFire, SIM), screening of test compounds; settings: for pIC50: 20-mer peptide substrate (SEQ ID NO:1) 20 μM, about 2 nM DPPI, 27° C., 60 min, semi-log plot analysis, read-out: IC50 of DPPI inhibition; for effect on DPPI activity in the reaction with the 20-mer substrate: 20-mer peptide substrate, mass spectrometry
Protocol: as §1
When a candidate compound is identified, the IC50 of the DPPI inhibition by the candidate compound is calculated using the formula (II):
[formula] wherein • Si is net substrate turnover signal of sample • So is net substrate turnover signal of positive control • Smin is net am signal of negative control • I is concentration of a candidate compound wherein a positive control is a reaction without any test compound and a negative control is a reaction without DPPI or substrate.
About 2 nM of DPPI was incubated with about 0.5, 1, 2, 4, 8, 16, 32, 64, 90, 128, 150 μM of the 20-mer substrate in the reaction buffer of 50 mM HEPES (pH 7.0), 100 mM NaCl, 0.005% Tween-20, and 2 mM of DTT or GSH. The reaction was incubated at about 27° C. and terminated with about 1/10 volume of 2% trifluoroacetic acid at multiple time points at 0, 2, 5, 10, 20, 30, 45, 60, 75, 90, and 120 mins. An aliquot of about 10 μl of the quenched reaction was used for detecting the substrate turnover by RapidFire (BioTrove, Woburn, Mass.) with a C4 cartridge. The reaction was loaded onto the cartridge, which was equilibrated with the stationary phase of 0.1% formic acid+0.02% TFA and developed with the mobile phase of 90% MeCN+0.1% formic acid+0.02% TFA at about 1 ml per min. The 20-mer substrate at SIM 1112 amu (atomic mass unit) and the corresponding 18-mer product at SIM 1019 were monitored using Agilent 1100 series LCMSD (Santa Clara, Calif.) in the positive ion mode monitoring.
Two fragment compounds, 2-(piperidin-1-ylcarbonyl)phenol and 2-(piperidin-1-ylcarbonyl)aniline were evaluated for their activity to modulate DPPI. A dilution series of the compounds of about 0.1 mM to about 100 mM was made in 100% DMSO. About one μl of a test compound and about 8 μl of about 3.75 nM DDP-1 were added to a 384-well polypropylene plate (Greiner Bio-One North America Inc., Monroe, N.C.). The proteolytic reaction was initiated by the addition of about 1 μl of 200 μM substrate. […] An aliquot of about 10 μl of the quenched reaction was analyzed by RapidFire™ as described in Examples 3 and 4.

[3] = target: T1, dipeptidyl peptidase I (DPPI); assay: Initial velocity analysis of DPPI with the dipeptide substrate Gly-Arg-AMC, fluorescence; settings: dipeptide GR-AMC as DPPI substrate, about 0.4 nM DPPI, pH 7.0
Protocol: (§2) FIG. 1. Initial velocity analysis for DPP1 kinetic constant in reaction with a 20-mer substrate (A) and a dipeptide substrate (B). (A) About 2 nM of DPPI was used in the reaction with the 20-mer substrate of […] (SEQ ID NO:1) and the reaction was monitored using a mass spectrometry system. (B) About 0.4 nM of DPP1 was used in the reaction with the dipeptide substrate of GR-α-methylcoumarin and the reaction was monitored using a rate-based format monitoring fluorescence at EM=460 nm and EX=380 nm. Initial rates are taken from kinetic data where less than 7% substrate turnover was achieved.
(§3) Once the rate of the substrate turnover under the initial velocity condition, the kinetic constants for DPPI and the peptide substrate are calculated using the following formula (I): Y=VMAX((X+Et+KM)−((((Et+X+KM)^2)−(4XEt))^0.5))/(2Et) wherein • Y is concentration of substrate turnover • X is substrate concentration • Et is DPPI concentration • KM is substrate concentration at ½ VMAX • VMAX is substrate turnover at substrate saturation
The DPPI activity was analyzed with either the dipeptide substrate, Gly-Arg, labeled with alpha-methylcoumarin (AMC), or the 20-mer peptide substrate of SEQ ID NO: 1. For the dipeptide substrate, about 0.4 nM of DPPI was incubated with about 1, 2, 5, 10, 25, 50, 100, 150, 300, 600 μM of the dipeptide substrate in 10 ul of reaction buffer of 50 mM Hepes (pH 7.0), 100 mM NaCl, 0.005% Tween-20, and 2 mM of DTT or GSH. The fluorescence (Ex=380 nm, EM=460 nm) was monitored continuously from about 0 to 10 mins, using a Safire II (Tecan, Switzerland) to determine the DPPI activity. The condition for the 20-mer peptide substrate was the same as described above.

[4] = target: T1, dipeptidyl peptidase I (DPPI); assay: Initial velocity analysis of DPPI with the 20-mer substrate, mass spectrometry; settings: 20-mer as DPPI substrate, about 2 nM DPPI, pH 7.0, about 27° C.
Protocol: as §2, §3
About 2 nM of DPPI was incubated with about 0.5, 1, 2, 4, 8, 16, 32, 64, 90, 128, 150 μM of the 20-mer substrate in the reaction buffer of 50 mM HEPES (pH 7.0), 100 mM NaCl, 0.005% Tween-20, and 2 mM of DTT or GSH. […]

T1 sequence (P53634 25-134 limits assumed, species assumed): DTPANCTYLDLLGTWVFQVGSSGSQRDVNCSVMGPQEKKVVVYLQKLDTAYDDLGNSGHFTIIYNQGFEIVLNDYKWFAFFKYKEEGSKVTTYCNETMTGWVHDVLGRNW
T1 sequence (P53634 231-394 limits assumed, species assumed): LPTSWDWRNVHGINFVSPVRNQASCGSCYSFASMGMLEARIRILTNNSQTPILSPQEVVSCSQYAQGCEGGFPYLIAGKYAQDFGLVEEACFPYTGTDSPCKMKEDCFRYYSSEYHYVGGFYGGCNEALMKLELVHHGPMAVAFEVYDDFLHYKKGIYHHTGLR
T1 sequence (P53634 395-463 limits assumed, species assumed): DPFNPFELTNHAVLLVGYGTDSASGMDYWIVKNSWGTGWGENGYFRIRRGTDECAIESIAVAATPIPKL

| pIC50 [2] | Km [4] [µM] | Compound | effect on DPPI activity in the reaction with the dipeptide substrate [1] | effect on DPPI activity in the reaction with the 20-mer substrate [2] | 2nd order rate constant [3] [M⁻¹ s⁻¹] | Km [3] [µM] | kcat [3] [Mmin^−1] |
| --- | --- | --- | --- | --- | --- | --- | --- |
| ~3.00 | – | Nc1ccccc1C(=O)N1CCCCC1 [2-(piperidin-1-ylcarbonyl)aniline] | neither compound, even in high concentration of 10 mM, affected the DPPI activity | modulated the DPPI activity in a concentration dependent manner | – | – | – |
| ~4.00 | – | O=C(c1ccccc1O)N1CCCCC1 [2-(piperidin-1-ylcarbonyl)phenol] | neither compound, even in high concentration of 10 mM, affected the DPPI activity | modulated the DPPI activity in a concentration dependent manner | – | – | – |
| – | – | Cc1cc(=O)oc2cc(NC(=O)[C@H](CCCNC(=N)N)NC(=O)CN)ccc12 [Dipeptide, Gly-Arg, labeled with alpha-methylcoumarin (AMC)] (H-Gly-Arg-{AMC}) | – | – | 1.48e+06 | 64 | 5667 |
| – | 62 | GEIIGGTECKPHSRPYMAYL [20-mer] | – | – | – | – | – |
